Reference: US12564638B2 (SHANGHAITECH UNIVERSITY, priority 2019, dated 2026)
pIC50: −log10 of the molar value. Where two headings read alike, the source gives them in different places. Values belong to the molecule of their own block, whether it stands above or below them.

Columns and labels:
[1] = system: HCC827 cells (EGFR Exon19 del, non-small cell lung cancer cells); assay: Cell viability assay (WST/CCK8), HCC827 cells; assay type: cell-based; settings: Homo sapiens, HCC827, 72 h, 72 hours, read-out: IC50 (half inhibitory concentration)
Summary of the method: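 Cells seeded at 3 000/well in RPMI1640 complete medium, dosed next day with compounds (top 10 μM, 3-fold, 10 points) for 72 h. Viability read with WST (CCK8) reagent; DMSO as negative control, EGFR TKIs as positive controls; IC50 determined.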

[2] = system: PC9 cells (EGFR Exon 19 del, non-small cell lung cancer cells); assay: Cell viability assay (WST/CCK8), PC9 cells; assay type: cell-based; settings: Homo sapiens, PC-9, PC9 (Exon19 Del), 72 hours, read-out: IC50 (half inhibitory concentration)
Source text: The cell lines with abnormal EGFR expression used are as follows: • HCC827 cells (EGFR Exon19 del, non-small cell lung cancer cells); • PC9 cells (EGFR Exon 19 del, non-small cell lung cancer cells); • PC9BracA1 (EGFR Exon 19 del+T790M, non-small cell lung cancer cells) • H1975 (EGFR Exon T790M+L858R mutation, non-small cell lung cancer cell line) • BT474 cells (HER2 positive breast cancer cells)
All of the half inhibitory concentrations (IC50) of these compounds of the present invention were determined with WST reagent from Fuyuan Biotec Company. The specific experiment procedures are as follows: Cancer cells were planted in 96-well-plate at the density of 3 000 cells per well with 100 μL RPMI1640 completed culture medium. In the next day, compounds with indicated concentrations were added to the cells, DMSO was used as the negative control and the EGFR TKIs were used to treat cells as the positive groups. After 72 hours drug treatment, cell viability was measured by using the WST reagent following the instructions.
The cells were treated with the gradient concentration of these compounds (the maximum concentration: 10 μM; 3-fold dilution ratio, 10 concentration gradients) for 72 hours and then incubated with the WST (CCK8) reagent to determine the cell viability.

[3] = HCC827 (Exon19 Del), WST (CCK8)
[4] = Table 4, gefitinib and sapitinib-based compounds, HCC827 (Exon19 Del), WST
[5] = Table 4, gefitinib-based compounds, WST
[6] = Table 8, osimertinib-based compounds, HCC827, WST
[7] = Table 5, afatinib-based compounds, HCC827 (Exon19 Del), WST

SMILES: COc1cc2ncnc(Nc3ccc(F)c(Cl)c3)c2cc1NC(=O)/C=C/CN1CCNCC1 [Dacomitinib derivative A, (E)-N-(4-((3-chloro-4-fluorophenyl)amino)-7-methoxyquinazolin-6-yl)-4-(piperazin-1-yl)but-2-enamide]
pIC50 [1, 3]: 8.40 | pIC50 ([2]; WST (CCK8)): 8.01

SMILES: COc1cc2ncnc(Nc3ccc(F)c(Cl)c3)c2cc1OCCCN1CCN(C(=O)CCCCCSc2cccc3c2C(=O)N(C2CCC(=O)NC2=O)C3=O)CC1 (stereo not shown) [SIAIS184166, 4-((6-(4-(3-((4-((3-chloro-4-fluorophenyl)amino)-7-methoxyquinazolin-6-yl)oxy)propyl)piperazin-1-yl)-6-oxohexyl)thio)-2-(2,6-dioxopiperidin-3-yl)isoindoline-1,3-dione]
pIC50 [1, 4]: 7.10 | pIC50 [2, 5]: 6.16

SMILES: COc1cc2ncnc(Nc3ccc(F)c(Cl)c3)c2cc1OCCCN1CCN(C(=O)COCCSc2cccc3c2C(=O)N(C2CCC(=O)NC2=O)C3=O)CC1 (stereo not shown) [SIAIS184168, 4-((2-(2-(4-(3-((4-((3-chloro-4-fluorophenyl)amino)-7-methoxyquinazolin-6-yl)oxy)propyl)piperazin-1-yl)-2-oxoethoxy)ethyl)thio)-2-(2,6-dioxopiperidin-3-yl)isoindoline-1,3-dione]
pIC50 [1, 4]: 7.37 | pIC50 [2, 5]: 6.50

SMILES: COc1cc2ncnc(Nc3ccc(F)c(Cl)c3)c2cc1NC(=O)/C=C/CN1CCN(C(=O)CCSc2cccc3c2CN(C2CCC(=O)NC2=O)C3=O)CC1 (stereo not shown) [SIAIS219186, (E)-N-(4-((3-chloro-4-fluorophenyl)amino)-7-methoxyquinazolin-6-yl)-4-(4-(3-((2-(2,6-dioxopiperidin-3-yl)-1-oxoisoindolin-4-yl)thio)propanoyl)piperazin-1-yl)but-2-enamide]
pIC50 [1, 3]: 8.22 | pIC50 ([2]; WST (CCK8)): 7.66

SMILES: C=CC(=O)Nc1cc(Nc2nccc(-c3cn(C)c4ccccc34)n2)c(OC)cc1N(C)CCN(C)C(=O)CSc1cccc2c1CN(C1CCC(=O)NC1=O)C2=O (stereo not shown) [SIAIS337052, N-(2-((2-(2-((2-(2,6-dioxopiperidin-3-yl)-1-oxoisoindolin-4-yl)thio)-N-methylacetamido)ethyl)(methyl)amino)-4-methoxy-5-((4-(1-methyl-1H-indol-3-yl)pyrimidin-2-yl)amino)phenyl)acrylamide]
pIC50 [1, 6]: 6.45

SMILES: C=CC(=O)Nc1cc(Nc2nccc(-c3cn(C)c4ccccc34)n2)c(OC)cc1N(C)CCN(C)C(=O)CCCCCCCCSc1cccc2c1CN(C1CCC(=O)NC1=O)C2=O (stereo not shown) [SIAIS337059, N-(2-((2-acrylamido-5-methoxy-4-((4-(1-methyl-1H-indol-3-yl)pyrimidin-2-yl)amino)phenyl)(methyl)amino)ethyl)-9-((2-(2,6-dioxopiperidin-3-yl)-1-oxoisoindolin-4-yl)thio)-N-methylnonanamide]
pIC50 [1, 6]: 7.33

SMILES: C=CC(=O)Nc1cc(Nc2nccc(-c3cn(C)c4ccccc34)n2)c(OC)cc1N(C)CCN(C)C(=O)COCCOCCOCCOCCOCCSc1cccc2c1CN(C1CCC(=O)NC1=O)C2=O (stereo not shown) [SIAIS337078, N-(2-((2-acrylamido-5-methoxy-4-((4-(1-methyl-1H-indol-3-yl)pyrimidin-2-yl)amino)phenyl)(methyl)amino)ethyl)-17-((2-(2,6-dioxopiperidin-3-yl)-1-oxoisoindolin-4-yl)thio)-N-methyl-3,6,9,12,15-pentaoxaheptadecanamide]
pIC50 [1, 6]: 6.90

SMILES: O=C1CCC(N2Cc3c(SCCC(=O)Nc4cc5c(Nc6ccc(F)c(Cl)c6)ncnc5cc4O[C@H]4CCOC4)cccc3C2=O)C(=O)N1 (stereo partly drawn) [SIAIS1210085, N-(4-((3-chloro-4-fluorophenyl)amino)-7-(((S)-tetrahydrofuran-3-yl)oxy)quinazolin-6-yl)-3-((2-(2,6-dioxopiperidin-3-yl)-1-oxoisoindolin-4-yl)thio)propanamide]
pIC50 [1, 7]: 6.32

SMILES: O=C1CCC(N2Cc3c(SCCCC(=O)Nc4cc5c(Nc6ccc(F)c(Cl)c6)ncnc5cc4O[C@H]4CCOC4)cccc3C2=O)C(=O)N1 (stereo partly drawn) [SIAIS1210087, N-(4-((3-chloro-4-fluorophenyl)amino)-7-(((S)-tetrahydrofuran-3-yl)oxy)quinazolin-6-yl)-4-((2-(2,6-dioxopiperidin-3-yl)-1-oxoisoindolin-4-yl)thio)butanamide]
pIC50 [1, 7]: 6.62

Further lines, results first:

pIC50 ([1]; Table 6, canertinib-based compounds, HCC827 (Exon19 Del), WST): 7.80 | pIC50 ([2]; Table 6, canertinib-based compounds, WST): 7.86
SMILES: C=CC(=O)Nc1cc2c(Nc3ccc(F)c(Cl)c3)ncnc2cc1OCCCN1CCC(N2CCNCC2)CC1 [Caneritinib derivative B (SIAIS249183), N-(4-((3-chloro-4-fluorophenyl)amino)-7-(3-(4-(piperazin-1-yl)piperidin-1-yl)propoxy)quinazolin-6-yl)acrylamide]

pIC50 [1, 4]: 7.66 | pIC50 [2, 5]: 6.50
SMILES: COc1cc2ncnc(Nc3ccc(F)c(Cl)c3)c2cc1OCCCN1CCN(C(=O)COCCOCCOCCSc2cccc3c2C(=O)N(C2CCC(=O)NC2=O)C3=O)CC1 (stereo not shown) [SIAIS184169, 4-((2-(2-(2-(2-(4-(3-((4-((3-chloro-4-fluorophenyl)amino)-7-methoxyquinazolin-6-yl)oxy)propyl)piperazin-1-yl)-2-oxoethoxy)ethoxy)ethoxy)ethyl)thio)-2-(2,6-dioxopiperidin-3-yl)isoindoline-1,3-dione]

pIC50 [1, 3]: 7.80 | pIC50 ([2]; WST (CCK8)): 7.63
SMILES: COc1cc2ncnc(Nc3ccc(F)c(Cl)c3)c2cc1NC(=O)/C=C/CN1CCN(C(=O)CSc2cccc3c2CN(C2CCC(=O)NC2=O)C3=O)CC1 (stereo not shown) [SIAIS219185, (E)-N-(4-((3-chloro-4-fluorophenyl)amino)-7-methoxyquinazolin-6-yl)-4-(4-(2-((2-(2,6-dioxopiperidin-3-yl)-1-oxoisoindolin-4-yl)thio)acetyl)piperazin-1-yl)but-2-enamide]

pIC50 [1, 6]: 6.34
SMILES: C=CC(=O)Nc1cc(Nc2nccc(-c3cn(C)c4ccccc34)n2)c(OC)cc1N(C)CCN(C)C(=O)CCCCSc1cccc2c1CN(C1CCC(=O)NC1=O)C2=O (stereo not shown) [SIAIS337055, N-(2-((2-acrylamido-5-methoxy-4-((4-(1-methyl-1H-indol-3-yl)pyrimidin-2-yl)amino)phenyl)(methyl)amino)ethyl)-5-((2-(2,6-dioxopiperidin-3-yl)-1-oxoisoindolin-4-yl)thio)-N-methylpentanamide]

pIC50 [1, 6]: 6.45
SMILES: C=CC(=O)Nc1cc(Nc2nccc(-c3cn(C)c4ccccc34)n2)c(OC)cc1N(C)CCN(C)C(=O)CCCCCCCCCCSc1cccc2c1CN(C1CCC(=O)NC1=O)C2=O (stereo not shown) [SIAIS337061, N-(2-((2-acrylamido-5-methoxy-4-((4-(1-methyl-1H-indol-3-yl)pyrimidin-2-yl)amino)phenyl)(methyl)amino)ethyl)-11-((2-(2,6-dioxopiperidin-3-yl)-1-oxoisoindolin-4-yl)thio)-N-methylundecanamide]

pIC50 [1, 6]: 6.77
SMILES: C=CC(=O)Nc1cc(Nc2nccc(-c3cn(C)c4ccccc34)n2)c(OC)cc1N(C)CCN(C)C(=O)COCCOCCSc1cccc2c1CN(C1CCC(=O)NC1=O)C2=O (stereo not shown) [SIAIS337075, N-(2-((2-(2-(2-(2-((2-(2,6-dioxopiperidin-3-yl)-1-oxoisoindolin-4-yl)thio)ethoxy)ethoxy)-N-methylacetamido)ethyl)(methyl)amino)-4-methoxy-5-((4-(1-methyl-1H-indol-3-yl)pyrimidin-2-yl)amino)phenyl)acrylamide]

pIC50 [1, 6]: 7.44
SMILES: C=CC(=O)Nc1cc(Nc2nccc(-c3cn(C)c4ccccc34)n2)c(OC)cc1N(C)CCN(C)C(=O)COCCOCCOCCOCCSc1cccc2c1CN(C1CCC(=O)NC1=O)C2=O (stereo not shown) [SIAIS337077, N-(2-((2-acrylamido-5-methoxy-4-((4-(1-methyl-1H-indol-3-yl)pyrimidin-2-yl)amino)phenyl)(methyl)amino)ethyl)-14-((2-(2,6-dioxopiperidin-3-yl)-1-oxoisoindolin-4-yl)thio)-N-methyl-3,6,9,12-tetraoxatetradecanamide]

pIC50 [1, 7]: 6.80
SMILES: O=C1CCC(N2Cc3c(SCCCCCC(=O)Nc4cc5c(Nc6ccc(F)c(Cl)c6)ncnc5cc4O[C@H]4CCOC4)cccc3C2=O)C(=O)N1 (stereo partly drawn) [SIAIS1210089, N-(4-((3-chloro-4-fluorophenyl)amino)-7-(((S)-tetrahydrofuran-3-yl)oxy)quinazolin-6-yl)-6-((2-(2,6-dioxopiperidin-3-yl)-1-oxoisoindolin-4-yl)thio)hexanamide]

pIC50 [1, 4]: 9.40
SMILES: CNC(=O)CN1CCC(Oc2cc3c(Nc4cccc(Cl)c4F)ncnc3cc2OC)CC1 [Sapitinib (AZD8931), sapitinib, reference compound]
